Source: patent publication US12390441B2, “Immunomodulating o-het/aryl azalides” (Zoetis Services LLC, priority 2020, dated 2025)
“Also recorded” adds a separate entry of the source.

What was measured:
[1] = PK study, plasma concentration; details: 10 mg/kg dose
IL-6 = assay: Plasma IL-6 biomarker in bovine M. haemolytica challenge
[2] = tested on: M. haemolytica (OSU-012103-BHI); details: 10 mg/kg
[3] = tested on: Lung bacteria isolated at necropsy; assay: MIC of recovered isolates, natural bovine respiratory disease study
Experimental: (§3) The primary clinical endpoint for efficacy was treatment failure/success over a 14-day observation period. Clinically normal beef calves (150-200 kg) at moderate risk for BRD were dosed on arrival to the feedlot. Animals (N=114/group) received saline (T01), 5 mg/kg M9 (T02) or 10 mg/kg M9 (T03); or Zactran (T04). […] Bacterial isolates were collected at necropsy and MICs were evaluated (Table 4).

upstream regulators = assay: Lung tissue RNA sequence analysis, ingenuity pathway analysis; assay type: in vivo, mice; details: M9 32 mg/kg (T03)
Experimental: In one murine P. multocida intranasal challenge study, mice were administered tulathromycin (16 mg/kg; T02), M9 (32 mg/kg; T03), or ceftiofur (9 mg/kg; T04) by subcutaneous injection 18 hours after bacterial challenge (5×10^3 CFU/mouse) for lung tissue RNA sequence analysis. […] Data was analyzed based on the number of genes being modulated in the same direction that were associated with a given upstream regulator. An activation z-score of 2 or greater is considered significant and the direction change is indicated by +(activated) or −(inhibited).

CD163 = CD163 expression by flow cytometry, blood of treated cattle; details: monocytes/macrophages
SLAMF9 = SLAMF9 (Bos taurus, UniProt E1BNF9); assay: Surface plasmon resonance (SPR), KD; assay type: binding; details: biologically relevant pH
SLAMF9, sequence (E1BNF9 1-289): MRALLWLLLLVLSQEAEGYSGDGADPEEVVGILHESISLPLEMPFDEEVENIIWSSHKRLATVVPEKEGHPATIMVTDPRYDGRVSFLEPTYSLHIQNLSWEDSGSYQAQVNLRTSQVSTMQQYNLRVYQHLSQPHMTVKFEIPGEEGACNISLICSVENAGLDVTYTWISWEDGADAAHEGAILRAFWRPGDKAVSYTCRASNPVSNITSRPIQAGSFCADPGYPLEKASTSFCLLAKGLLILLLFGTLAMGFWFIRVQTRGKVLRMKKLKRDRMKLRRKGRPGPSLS
Text: (§1) In order to add further clarity to binding partner identification, surface plasma resonance (SPR) technology was used. […] These targets were unique to this drug as compared to gamithromycin, a macrolide antibiotic used in the treatment of BRD. Both targets fit the paradigm that the immunological mechanism of action is linked to the pathways that are both of key importance as being dysregulated in BRD and modulated by M9. LCN2 is expressed by neutrophils upon activation of toll-like receptors (TLRs) and is a component of the innate inflammatory response. […] Very little information exists to date on SLAMF9. It is a member of a family of signal adaptor proteins that is thought to lack signal transduction capabilities.
(§2) KD is the equilibrium dissociation constant that was used to present the drug/target affinity. The identified targets associated with drug were measured by surface plasmon resonance (SPR) to define the KD.

LCN2 = target: T1, LCN2 (Bos taurus, UniProt A0AAA9TIZ6); assay: Surface plasmon resonance (SPR), KD; assay type: binding; details: biologically relevant pH
T1 sequence (A0AAA9TIZ6 1-200): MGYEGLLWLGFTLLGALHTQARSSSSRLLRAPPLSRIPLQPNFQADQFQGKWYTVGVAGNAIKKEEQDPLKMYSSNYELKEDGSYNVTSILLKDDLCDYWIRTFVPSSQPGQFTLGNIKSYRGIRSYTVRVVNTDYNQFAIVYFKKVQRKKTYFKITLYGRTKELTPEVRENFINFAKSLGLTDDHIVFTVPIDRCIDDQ
Text: as §1, §2

natural BRD infection = assay: Natural bovine respiratory disease study; assay type: in vivo, beef calves; details: 14-day observation
Experimental: as §3

P. multocida = assay: Murine P. multocida intranasal challenge study, survival; assay type: in vivo, mice; details: 5×10^3 CFU/mouse; subcutaneous 18 hours after challenge; tulathromycin 16 mg/kg, M9 32 mg/kg, ceftiofur 9 mg/kg
P. multocida 46572 = assay: In vivo mouse lung infection challenge model (murine); set-up: species or system CD-1 female mice
In short: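 CD-1 female mice were challenged intranasally with mid-log P. multocida 46572 (target 5×10^2 CFU/mouse), then given 20 mg/kg subcutaneously in buffered (~pH 5.4) propylene glycol/monothioglycerol/water. Mortality was followed to Day 10, analysed by generalized mixed model and survival analysis; harmonized survival is relative to vehicle and positive controls.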

[4] = H. somni (25) lung isolates at necropsy

CCCNC[C@]1(O)[C@H](C)O[C@@H](O[C@H]2[C@H](C)[C@@H](O[C@@H]3O[C@H](C)C[C@H](NC)[C@H]3O)[C@](C)(O)C[C@@H](C)CN[C@H](C)[C@@H](O)[C@](C)(O)[C@@H](CC)OC(=O)[C@@H]2C)C[C@@]1(C)OC [Example M9, (2R,3S,4R,5R,8R,10R,11R,12S,13S,14R)-2-ethyl-3,4,10-trihydroxy-13-(((2R,4R,5S,6S)-5-hydroxy-4-methoxy-4,6-dimethyl-5-((propylamino)methyl)-tetrahydro-2H-pyran-2-yl)oxy)-11-(((2S,3R,4S,6R)-3-hydroxy-6-methyl-4-(methylamino)tetrahydro-2H-pyran-2-yl)oxy)-3,5,8,10,12,14-hexamethyl-1-oxa-6-azacyclopentadecan-15-one]
maximum plasma concentration [1]: 5 µg/mL | IL-6 levels (IL-6): significantly reduced | lung lesion scores ([2]; inhaled or nasal): 29 | mortality ([2]; separate study, vs. saline 38.9%): 13% | MIC50 [3, 4]: 32 µg/mL | MIC90 [3, 4]: 32 µg/mL | MIC Range [3, 4]: 8 to 64 µg/mL | MIC, BRD bacterial isolates collected at necropsy ([3]; some of the isolates): < 64 µg/mL | activation z-score, IFNγ (upstream regulators): −5.759 | activation z-score, IL-1β (upstream regulators): −5.947 | activation z-score, STAT1 (upstream regulators): −2.787 | activation z-score, TNF (upstream regulators): −4.669 | activation z-score, lipopolysaccharide (upstream regulators): −6.725 | activation z-score, poly rl:rC-RNA (upstream regulators): −5.289 | unique genes up or down regulated (with significance) (upstream regulators; total lung tissue): at least 226 | CD163 expression (CD163): suppressed; also recorded: mitigates the pathologic increase | drug/target binding, SLAMF9 (SLAMF9): direct binding targets | drug/target binding, LCN2 (LCN2): direct binding targets | Percent failure (treatment failure) (natural BRD infection; 5 mg/kg (T02)): 19.3% | Percent failure (treatment failure) (natural BRD infection; 10 mg/kg (T03)): 8.8% | Survival at Day 7 (P. multocida): ~50% | Mouse survival (P. multocida 46572; M9 positive control, 20 mg/kg): 90-100% | clinical efficacy, P. multocida infection in mice (P. multocida 46572; mouse, in vivo): clinically efficacious
